Patent US20080241085A1, “COMPOSITIONS FOR USE IN DARKENING THE SKIN” (priority 2007, published 2008)

Experiments:
Type in all cases: in vivo
human skin [1] = test: Melanin deposition by DRS after topical treatment of a human subject's arm; details: 4 weeks of treatment, 1% topical twice a day; vehicle 1.248
Procedure: (§1) All the phospholipids were dissolved in an ethanol/propylene glycol vehicle (70/30, v/v) at the concentration of 1% of solid phospholipid powder.
(§2) Preparations 1, 2 and 3 were tested for their ability to induce skin darkening in one human subject, with informed consent. One volunteer, Fitzpatrick skin type II, with no history of skin cancer, no skin disease or unusual skin reaction, and no topical treatments on the study sites (the upper and lower parts of the arm) within a period of 30 days before enrollment and during the treatment period, was treated with preparations 1-3. Different preparations were used in four different studies. Two studies used the upper part of the arm, and two other studies used the lower part of the arm, which were treated twice a day for six to eight weeks with 10 μl of test phospholipid solutions (1%) in ethanol: propylene glycol (70:30, v/v) vehicle, or with vehicle alone. No other products were used and no sun exposure occurred during the treatment period.
(§3) Skin darkening was evaluated visually, and in some cases also by using a chromameter (ChromaMeter, Minolta, Osaka, Japan) and DRS (see Nguyen B. C., Br. J. Dermatol. 2003, 149(2):332-40). Measurements were taken at 4 and 8 weeks. […]

human skin [2] = test: Visual evaluation of skin darkening after topical treatment of a human subject's arm; design: key to visual skin darkening, 2 WEEKS / visual skin darkening, 4 WEEKS / visual skin darkening, 8 WEEKS / visual skin darkening, 8 WKS + 1 WK / visual skin darkening, 8 WKS + 2 WKS / visual skin darkening, 8 WKS + 3 WKS: ++: Obvious visible tan-like color; +: Weak visible tan-like color; 0: No visible tan-like color; details: for visual skin darkening, 2 WEEKS: one volunteer, 2 weeks of treatment; for visual skin darkening, 8 WEEKS: 8 weeks of treatment; for induction of visible skin darkening (in words): 1% topical twice a day, six to eight weeks; for visual skin darkening, 8 WKS + 1 WK: 8 weeks topical treatment followed by 1 week without any treatment; for visual skin darkening, 8 WKS + 2 WKS: 8 weeks topical treatment followed by 2 weeks without any treatment; for visual skin darkening, 8 WKS + 3 WKS: 8 weeks topical treatment followed by 3 weeks without any treatment
Procedure: All the phospholipids were dissolved in an ethanol/propylene glycol vehicle (70/30, v/v) at the concentration of 1% of solid phospholipid powder. Preparations 1, 2 and 3 were tested for their ability to induce skin darkening in one human subject, with informed consent. One volunteer, Fitzpatrick skin type II, with no history of skin cancer, no skin disease or unusual skin reaction, and no topical treatments on the study sites (the upper and lower parts of the arm) within a period of 30 days before enrollment and during the treatment period, was treated with preparations 1-3. Different preparations were used in four different studies. Two studies used the upper part of the arm, and two other studies used the lower part of the arm, which were treated twice a day for six to eight weeks with 10 μl of test phospholipid solutions (1%) in ethanol: propylene glycol (70:30, v/v) vehicle, or with vehicle alone. No other products were used and no sun exposure occurred during the treatment period. Skin darkening was evaluated visually, and in some cases also by using a chromameter (ChromaMeter, Minolta, Osaka, Japan) and DRS (see Nguyen B. C., Br. J. Dermatol. 2003, 149(2):332-40). Measurements were taken at 4 and 8 weeks. The DRS instrument was assembled using a tungsten halogen light source (Model LS- 1, Ocean Optics, Dunedin, Fla., USA), Miniature Fiber Optic Spectrometer (Model USB2000, Ocean Optics, Dunedin, Fla., USA) and custom-designed bifurcated fiber optic probe (Multimode Fiber Optics Inc, East Hanover, N.J., USA). The scale used for reporting visual skin darkening is defined in the Table 1. The visual tan-like color was somewhat stronger on the upper arm, relative to lower arm, possibly because of slightly darker baseline color of the lower arm than the upper arm. The visual results are summarized in Table 2, including the fading time of the darker color, when treatment was terminated at 8 weeks and skin color was followed for additional three weeks.

human skin [3] = test: Skin colour L* by chromameter after topical treatment of a human subject's arm; details: 4 weeks of treatment, 1% topical twice a day; vehicle 67.28
Procedure: as §1, §2, §3

[4] = 1% in ethanol/propylene glycol (70/30), 10 μl twice a day, topical, arm
[5] = after termination of 8 weeks topical treatment

Row | Substance | Melanin (DRS, arbitrary units) (human skin [1]) | visual skin darkening, 2 WEEKS (human skin [2]; [4]) | visual skin darkening, 8 WEEKS (human skin [2]; [4]) | induction of visible skin darkening (in words) (human skin [2]) | visual skin darkening, 8 WKS + 1 WK (human skin [2]) | visual skin darkening, 8 WKS + 2 WKS (human skin [2]) | visual skin darkening, 8 WKS + 3 WKS (human skin [2]) | L* (Chromameter) (human skin [3]) | time at which darkening started to fade after termination of topical treatment (human skin [2]; [5]) | time the darkening remained visible after the end of the topical treatment (human skin [2]; [5]) | change of visible skin darkening with routine daily activities (e.g., after water and soap washing) (human skin [2]; during topical treatment) | visual skin darkening, 4 WEEKS (human skin [2]; 1% in ethanol/propylene glycol (70/30), 10 μl twice a day, topical, arm, 4 weeks of treatment)
1 | Lysophosphatidylcholine [Preparation 2] | 1.304 arbitrary units | + | ++ | induced visible skin darkening | ++ | + | 0 | 67.69 |  |  |  | 
2 | lysophosphatidylcholine [LPC] |  |  |  |  |  |  |  |  | 14 to 20 days | at least 14 days | did not change | 
3 | lysophosphatidylcholine [Preparation 1] | 1.274 arbitrary units | + | ++ | induced visible skin darkening | ++ | + | 0 | 68.27 |  |  |  | ++
